Where two headings read alike, the source gives them in different places.
Test system: human cadaver skin
Conditions: normalized against time zero reading, average of 6 cells
Excerpt: Electrical impedance is a proxy indicator of change in skin permeability.
The impedance reading at each cell at different time points was normalized against the time zero-minute reading of that cell. For each test formulation, the impedance reading of each time point is the average normalized value of the 6 repeat cells at that time point. Note: SDS=sodium dodecyl sulphate.

CCCCCCCCCCCCOS(=O)(=O)[O-].[Na+] [SDS, sodium dodecyl sulphate]
normalized electrical impedance (time 0 minutes): 1.00 | normalized electrical impedance (time 5 minutes): 0.94 | normalized electrical impedance (time 10 minutes): 0.90 | normalized electrical impedance (time 15 minutes): 0.86 | normalized electrical impedance (time 30 minutes): 0.76

— patent publication US20240197593A1, “CLEANSING COMPOSITION FOR FEMALE INTIMATE HYGIENE” (Conopco, Inc., d/b/a UNILEVER, priority 2021, published 2024)
